Here are results for nine compounds from ChEMBL document CHEMBL1909046, “DrugMatrix in vitro pharmacology data”.

The target of assay [1] is T1, Muscarinic acetylcholine receptor M2 (Homo sapiens, UniProt P08172). Also: in other assays of this panel Not Active means under 50% inhibition at 10 µM.
T1 sequence (P08172 whole entry): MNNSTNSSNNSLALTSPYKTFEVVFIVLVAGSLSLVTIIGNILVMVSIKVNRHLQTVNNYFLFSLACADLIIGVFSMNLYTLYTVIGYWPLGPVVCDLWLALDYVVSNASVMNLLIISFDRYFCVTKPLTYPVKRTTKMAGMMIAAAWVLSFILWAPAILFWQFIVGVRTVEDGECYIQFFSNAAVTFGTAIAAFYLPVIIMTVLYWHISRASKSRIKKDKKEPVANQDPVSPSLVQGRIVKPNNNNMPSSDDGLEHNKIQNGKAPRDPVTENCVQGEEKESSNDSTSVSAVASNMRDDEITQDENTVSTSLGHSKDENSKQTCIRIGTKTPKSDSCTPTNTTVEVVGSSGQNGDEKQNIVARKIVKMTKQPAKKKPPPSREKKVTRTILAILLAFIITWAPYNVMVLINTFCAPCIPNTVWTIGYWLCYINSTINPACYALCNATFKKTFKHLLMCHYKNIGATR
The assay is classed as cell membranes, CHO-K1, Membrane. To be noted: for Ki: read-out: Ki.

The target of assay [2] is T2, Nitric oxide synthase, inducible (Mus musculus, UniProt P29477).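 Also: inhibition of iNOS enzyme activity measured with L-arginine as substrate; in other assays of this panel Not Active means under 50% inhibition at 10 µM.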
T2 sequence (P29477 whole entry): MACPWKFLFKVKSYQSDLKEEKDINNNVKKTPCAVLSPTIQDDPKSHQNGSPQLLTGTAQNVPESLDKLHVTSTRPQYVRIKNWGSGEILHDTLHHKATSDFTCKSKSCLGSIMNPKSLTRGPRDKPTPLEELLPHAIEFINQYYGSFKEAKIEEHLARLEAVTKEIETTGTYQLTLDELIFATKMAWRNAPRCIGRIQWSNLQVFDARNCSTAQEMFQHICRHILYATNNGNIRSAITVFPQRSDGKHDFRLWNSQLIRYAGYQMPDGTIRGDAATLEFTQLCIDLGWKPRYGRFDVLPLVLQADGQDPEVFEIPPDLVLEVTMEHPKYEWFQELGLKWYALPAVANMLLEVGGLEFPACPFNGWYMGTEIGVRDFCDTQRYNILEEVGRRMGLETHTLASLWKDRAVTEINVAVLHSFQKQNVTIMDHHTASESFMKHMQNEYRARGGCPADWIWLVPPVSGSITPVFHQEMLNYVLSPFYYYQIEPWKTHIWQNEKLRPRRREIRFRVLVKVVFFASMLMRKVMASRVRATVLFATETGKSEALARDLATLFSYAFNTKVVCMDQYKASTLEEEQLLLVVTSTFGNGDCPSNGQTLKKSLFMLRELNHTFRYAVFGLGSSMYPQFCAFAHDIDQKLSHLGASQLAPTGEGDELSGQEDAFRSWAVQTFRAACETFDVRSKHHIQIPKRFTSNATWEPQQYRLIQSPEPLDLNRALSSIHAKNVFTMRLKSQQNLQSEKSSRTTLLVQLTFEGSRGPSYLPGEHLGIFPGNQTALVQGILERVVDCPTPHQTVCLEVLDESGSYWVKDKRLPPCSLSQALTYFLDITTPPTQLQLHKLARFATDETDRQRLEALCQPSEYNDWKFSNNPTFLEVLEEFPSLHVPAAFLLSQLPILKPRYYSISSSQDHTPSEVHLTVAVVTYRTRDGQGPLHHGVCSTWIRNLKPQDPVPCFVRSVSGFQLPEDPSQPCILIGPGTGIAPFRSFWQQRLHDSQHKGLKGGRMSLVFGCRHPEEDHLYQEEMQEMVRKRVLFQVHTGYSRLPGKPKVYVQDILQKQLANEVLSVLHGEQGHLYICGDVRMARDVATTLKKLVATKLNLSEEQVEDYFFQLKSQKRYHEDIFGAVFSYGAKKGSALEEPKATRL
Also on record: species or system Escherichia coli.

Assay [3] deals with Tyrosine-protein kinase Lck (Homo sapiens, UniProt P06239). The assay is described as follows: DRUGMATRIX: Protein Tyrosine Kinase, LCK enzyme inhibition (substrate: Poly(Glu:Tyr)). The assay is classed as cell-based, Insect cells. To be noted: Not Active = under 50% inhibition at 10 µM.
Another assay deals with D(3) dopamine receptor (Homo sapiens, UniProt P35462). The assay is described as follows: DRUGMATRIX: Dopamine D3 radioligand binding (ligand: [3H] Spiperone). The assay is classed as cell membranes, CHO, Membrane. To be noted: for Ki: read-out: Ki.
Assay [4] addresses T3, C-X-C chemokine receptor type 2 (Homo sapiens, UniProt P25025).
T3 sequence (P25025 whole entry): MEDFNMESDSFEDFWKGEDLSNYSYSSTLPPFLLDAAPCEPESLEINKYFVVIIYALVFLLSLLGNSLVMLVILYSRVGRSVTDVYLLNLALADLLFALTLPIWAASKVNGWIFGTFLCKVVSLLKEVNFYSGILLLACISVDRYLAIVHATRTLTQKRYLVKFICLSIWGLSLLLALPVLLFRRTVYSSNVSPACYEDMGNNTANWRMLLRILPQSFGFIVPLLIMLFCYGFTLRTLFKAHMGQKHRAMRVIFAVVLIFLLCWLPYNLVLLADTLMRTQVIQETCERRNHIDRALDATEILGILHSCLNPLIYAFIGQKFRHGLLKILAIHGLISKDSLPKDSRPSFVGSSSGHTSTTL
It is filed as cell membranes, Membrane. Conditions: cho-k1.

In assay [5] the target is T4, Cholecystokinin receptor type A (Homo sapiens, UniProt P32238). Also: in other assays of this panel Not Active means under 50% inhibition at 10 µM.
T4 sequence (P32238 whole entry): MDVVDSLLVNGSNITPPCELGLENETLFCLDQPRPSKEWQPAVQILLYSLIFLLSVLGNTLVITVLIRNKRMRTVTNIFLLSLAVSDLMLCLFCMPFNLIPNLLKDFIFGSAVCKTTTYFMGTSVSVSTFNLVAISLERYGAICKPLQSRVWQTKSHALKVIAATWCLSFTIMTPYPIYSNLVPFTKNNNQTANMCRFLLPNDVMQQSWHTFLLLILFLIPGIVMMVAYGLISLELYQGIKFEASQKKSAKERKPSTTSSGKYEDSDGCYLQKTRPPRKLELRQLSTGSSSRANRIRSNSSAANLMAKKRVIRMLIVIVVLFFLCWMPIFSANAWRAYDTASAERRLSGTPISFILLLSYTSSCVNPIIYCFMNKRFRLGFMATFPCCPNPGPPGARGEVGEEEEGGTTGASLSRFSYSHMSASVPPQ
The assay is classed as cell membranes, Membrane. To be noted: 1321-n1.

A short description of assay [6]: DRUGMATRIX: Phosphodiesterase PDE4 enzyme inhibition (substrate: [3H]cAMP + cAMP). Conditions: u-937; Not Active = under 50% inhibition at 10 µM.
Assay [7] addresses Beta-1 adrenergic receptor (Homo sapiens, UniProt P08588). The assay is described as follows: DRUGMATRIX: Adrenergic beta1 radioligand binding (ligand: [125I] Cyanopindolol). The assay is classed as cell membranes, CHO-K1, Membrane. To be noted: Not Active = under 50% inhibition at 10 µM.
Assay [8] can be described thus: DRUGMATRIX: Tumor Necrosis Factor (TNF), Non-Selective radioligand binding (ligand: [125I] TNF-alpha). The assay is classed as cell membranes, Membrane. To be noted: u-937; Not Active = under 50% inhibition at 10 µM.
Assay [9] has as its target Tyrosine-protein kinase Fyn (Homo sapiens, UniProt P06241). The assay is described as follows: biochemical. It is filed as cell-based, Insect cells.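 Also: enzymatic inhibition of Fyn kinase activity measured with Poly(Glu:Tyr) as the phosphorylation substrate; in other assays of this panel Not Active means under 50% inhibition at 10 µM.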

Beta-1 adrenergic receptor, sequence (P08588 whole entry): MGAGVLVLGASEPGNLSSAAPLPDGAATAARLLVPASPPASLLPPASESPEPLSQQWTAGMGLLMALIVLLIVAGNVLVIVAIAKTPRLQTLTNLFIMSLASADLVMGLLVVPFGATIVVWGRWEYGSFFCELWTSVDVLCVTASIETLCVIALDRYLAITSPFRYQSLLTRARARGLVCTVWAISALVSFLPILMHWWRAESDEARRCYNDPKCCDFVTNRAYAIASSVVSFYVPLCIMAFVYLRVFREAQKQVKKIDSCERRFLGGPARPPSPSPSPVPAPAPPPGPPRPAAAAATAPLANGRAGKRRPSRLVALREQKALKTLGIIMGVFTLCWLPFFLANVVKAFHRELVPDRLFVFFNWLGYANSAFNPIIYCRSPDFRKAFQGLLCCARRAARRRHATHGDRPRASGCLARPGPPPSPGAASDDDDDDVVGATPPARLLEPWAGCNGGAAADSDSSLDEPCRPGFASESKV
Tyrosine-protein kinase Lck, sequence (P06239 whole entry): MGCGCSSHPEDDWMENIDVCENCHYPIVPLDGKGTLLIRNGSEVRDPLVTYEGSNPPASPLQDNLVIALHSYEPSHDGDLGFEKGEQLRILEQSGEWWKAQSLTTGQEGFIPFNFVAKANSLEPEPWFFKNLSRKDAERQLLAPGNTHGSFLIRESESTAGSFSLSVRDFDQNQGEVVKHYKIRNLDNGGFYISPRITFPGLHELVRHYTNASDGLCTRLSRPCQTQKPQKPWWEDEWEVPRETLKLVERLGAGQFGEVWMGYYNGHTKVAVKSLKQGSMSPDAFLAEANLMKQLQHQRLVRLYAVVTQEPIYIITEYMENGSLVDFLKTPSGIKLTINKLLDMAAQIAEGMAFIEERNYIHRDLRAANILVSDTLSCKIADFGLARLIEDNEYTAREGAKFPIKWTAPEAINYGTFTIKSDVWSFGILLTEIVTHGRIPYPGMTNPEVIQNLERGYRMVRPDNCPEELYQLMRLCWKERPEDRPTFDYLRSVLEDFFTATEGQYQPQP
Tyrosine-protein kinase Fyn, sequence (P06241 whole entry): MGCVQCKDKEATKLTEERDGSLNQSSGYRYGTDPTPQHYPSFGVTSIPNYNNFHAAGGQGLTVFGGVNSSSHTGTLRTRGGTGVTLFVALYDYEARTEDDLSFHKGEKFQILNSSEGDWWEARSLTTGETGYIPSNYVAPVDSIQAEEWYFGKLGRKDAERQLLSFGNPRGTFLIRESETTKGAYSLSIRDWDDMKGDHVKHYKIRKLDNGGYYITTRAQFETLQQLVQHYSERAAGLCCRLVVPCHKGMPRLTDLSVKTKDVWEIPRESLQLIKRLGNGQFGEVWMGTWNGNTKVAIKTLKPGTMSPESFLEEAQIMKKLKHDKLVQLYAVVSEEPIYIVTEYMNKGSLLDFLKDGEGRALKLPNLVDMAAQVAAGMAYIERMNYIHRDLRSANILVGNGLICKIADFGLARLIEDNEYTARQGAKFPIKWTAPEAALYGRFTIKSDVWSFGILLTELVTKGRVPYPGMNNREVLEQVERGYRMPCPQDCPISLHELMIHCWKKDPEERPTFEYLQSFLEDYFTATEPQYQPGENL
D(3) dopamine receptor, sequence (P35462 whole entry): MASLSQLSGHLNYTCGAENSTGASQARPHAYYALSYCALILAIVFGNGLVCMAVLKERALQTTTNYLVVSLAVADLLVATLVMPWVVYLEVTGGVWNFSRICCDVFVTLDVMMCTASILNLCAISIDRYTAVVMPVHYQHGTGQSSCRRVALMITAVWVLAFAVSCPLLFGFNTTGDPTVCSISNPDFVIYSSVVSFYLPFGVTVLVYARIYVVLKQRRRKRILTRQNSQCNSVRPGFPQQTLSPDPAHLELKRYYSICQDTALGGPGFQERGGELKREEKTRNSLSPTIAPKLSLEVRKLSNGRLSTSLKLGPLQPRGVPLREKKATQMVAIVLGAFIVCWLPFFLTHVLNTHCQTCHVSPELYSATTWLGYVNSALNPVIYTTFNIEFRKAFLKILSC

As a reminder, the IC50 is the concentration that inhibits the measured activity by half. Broadly, the Ki is the equilibrium dissociation constant of an inhibitor or competing ligand from its target. Turning to `CCOC(=O)[C@H](CCc1ccccc1)N[C@@H](C)C(=O)N1[C@H](C(=O)O)C[C@@H]2CCC[C@@H]21`, the half-maximal inhibitory concentration (IC50) result (in assay [1] (cho-k1); in [2]; in [3] (insect cells); at D(3) dopamine receptor (cho); in [4]; in assay [5]) was “Not Active” in each case. For the same compound, the 50% inhibitory concentration (IC50) entry in assay [6], in [7] (cho-k1), in assay [8] and in assay [9] (insect cells) was “Not Active” throughout. For the same compound, the Ki result in assay [6] and in [8] was “Not Active” throughout.

Regarding `CC(C)(C)NC(=O)[C@@H]1CN(Cc2cccnc2)CCN1C[C@@H](O)C[C@@H](Cc1ccccc1)C(=O)N[C@H]1c2ccccc2C[C@H]1O.O`, the IC50 entry (in assay [1] (cho-k1); in assay [2]; in [3] (insect cells); at D(3) dopamine receptor (cho); in assay [4]; in [5]) was “Not Active” in each case. For the same compound, the IC50 entry in assay [6], in [7] (cho-k1), in assay [8] and in assay [9] (insect cells) was “Not Active” throughout. Besides, the Ki entry in assay [6] and in [8] was “Not Active” throughout.

For the compound `CC1(C)[C@H]2CC[C@]1(C)C(=O)C2` [(-)-CAMPHOR], the IC50 result (in assay [1] (cho-k1); in assay [2]; in assay [3] (insect cells); at D(3) dopamine receptor (cho); in assay [4]; in assay [5]) was “Not Active” throughout. Moreover, the IC50 entry in assay [6], in assay [7] (cho-k1), in assay [8] and in [9] (insect cells) was “Not Active” in each case. The Ki result in assay [6] and in assay [8] was “Not Active” each time.

As for `CN(C)CCCN1c2ccccc2CCc2ccc(Cl)cc21` [CLOMIPRAMINE], the IC50 was 241 nM in [1] (read-out: IC50); “Not Active” in [2]; “Not Active” in assay [3] (insect cells); 139 nM on D(3) dopamine receptor (read-out: IC50); “Not Active” in assay [4]; “Not Active” in assay [5]. The IC50 entry in assay [7] (cho-k1) and in [9] (insect cells) was “Not Active” each time. Also, the Ki in assay [1] was 86 nM; on D(3) dopamine receptor it was 47 nM.

Turning to `Clc1ccccc1C(c1ccccc1)(c1ccccc1)n1ccnc1` [CLOTRIMAZOLE], the half-maximal inhibitory concentration (IC50) in assay [1] (read-out: IC50) was 14500 nM; in assay [2], “Not Active”; in [3] (insect cells), “Not Active”; on D(3) dopamine receptor (read-out: IC50), 2650 nM; in [4], “Not Active”; in assay [5], “Not Active”. For the same compound, the half-maximal inhibitory concentration (IC50) in assay [7] (read-out: IC50) amounted to 11300 nM; in assay [9] (read-out: IC50) it was 31900 nM. The Ki in [1] was 5170 nM; on D(3) dopamine receptor it was 899 nM; in [7] (read-out: Ki) it was 6510 nM.

For `Oc1c(I)cc(I)c2cccnc12` [IODOQUINOL], the IC50 entry is “Not Active” in [1] (cho-k1); “Not Active” in assay [2]; 2460 nM in [3] (read-out: IC50); “Not Active” at D(3) dopamine receptor (cho); “Not Active” in [4]; “Not Active” in [5]. The half-inhibitory concentration (IC50) result in assay [6] was “Not Active”; in [7] (cho-k1) it was “Not Active”; in assay [8] it was “Not Active”; in assay [9] (read-out: IC50), 1570 nM. The Ki entry in assay [6] and in assay [8] was “Not Active” in each case.

For `NNC(=O)c1ccncc1` [ISONIAZID], the IC50 entry (in [1] (cho-k1); in assay [2]; in assay [3] (insect cells); on D(3) dopamine receptor (cho); in assay [4]; in [5]) was “Not Active” each time. In addition, the IC50 entry in [6], in assay [7] (cho-k1), in [8] and in assay [9] (insect cells) was “Not Active” in each case. For the same compound, the Ki entry in assay [6] and in assay [8] was “Not Active” throughout.

As to `CC(C)(O)c1ccccc1CC[C@@H](SCC1(CC(=O)O)CC1)c1cccc(/C=C/c2ccc3ccc(Cl)cc3n2)c1` [MONTELUKAST], the half-maximal inhibitory concentration (IC50) entry in assay [1] (cho-k1), in assay [2], in assay [3] (insect cells), in [4], in assay [5] and in assay [7] (cho-k1) was “Not Active” each time. In addition, in assay [9] (read-out: IC50), the half-inhibitory concentration (IC50) amounted to 4700 nM.

Turning to `COc1cccc(C2(O)CCCCC2CN(C)C)c1` (stereo unspecified) [TRAMADOL], the IC50 result (in [1] (cho-k1); in assay [2]; in [3] (insect cells); at D(3) dopamine receptor (cho); in assay [4]; in [5]) was “Not Active” in each case. The IC50 entry in assay [7] (cho-k1) and in assay [9] (insect cells) was “Not Active” in each case.
